In US11945784B2, “IRE1 small molecule inhibitors” (Cornell University, priority 2018, dated 2024):

Assays:
[1] = target: T1, IRE1α (Homo sapiens (Human), UniProt O75460); experiment: In vitro luciferase assay (IRE1α Endoribonuclease Nanoluciferase Assay); type: cell-based; settings: 293T cells, XBP1 luciferase reporter
Experimental: Compounds disclosed herein were assessed for disruption of IRE-1 signaling using a IRE1α Endoribonuclease Nanoluciferase Assay. Briefly, 2.5×10^6 293T cells were seeded in a 10 cm^2 tissue culture plate. About 24 hours later, the cells were transfected with Effectene. In a 15 mL Tube, the following was added: 2 μg XBP1 luciferase reporter plasmid (PGK-Luc2-P2A-XBP1u-Nanoluciferase-PEST); 300 μl EC buffer; and 16 μl Enhancer, followed by incubation at room temp for 5 minutes. Next, 60 μl Effectene (Qiagen 301427) was added, followed by incubation at room temperature for 10 minutes. 2.6 mL cDMEM media was added. Old media was aspirated from the cells, followed by addition of 7 mL fresh media. Full transfection mixture was added dropwise to cells. Cells were incubated for 6 hours, followed by trypsinization, centrifugation and resuspension in 11 mL media. 100 uL of cells were plated per a well in a 96 well plate. A day later, ER stressors of choice+/−inhibitors were added. To harvest, media was aspirated from cells completely, then 50 uL 1× passive lysis buffer (Promega: E1941) was added per well and put on shaker (300 rpm) for 30 minutes at room temperature. Cells were centrifuged, and 15 uL sample per well was added to a new, opaque white 384 well plate (Corning 3570). 15 uL OneGlo (nanoluciferase kit, Promega N1630) was added. Plates were spun down, placed on shaker (300 rpm) for 10 minutes. Plates were read on luminometer, 1000 ms integration time per well. 15 uL Stop and Glo (nanoluciferase kit) was added. Plates were spun down, placed on shaker (300 rpm) for 10 minutes. Plates were read on luminometer, 1000 ms second integration time per well. Recordings are provided below in Table 4

[2] = target: T1, IRE1α; experiment: In vitro FRET assay; type: biochemical; settings: XBP1 RNA probe
Experimental: In vitro FRET assay was performed to evaluate the ability of select compounds to inhibit IRE1, the results of which are summarized in Table 3. To perform the in vitro FRET assay, 1× complete assay buffer (CAB; […], 50 mM sodium citrate pH 7.15, 1 mM magnesium acetate, 0.02% tween 20) was used to dilute SignalChem IRE1α protein to a final concentration of 2 nM. Selected compounds were serially diluted with DMSO in a non-binding black 384-well plate for a total of 15 ul in each well. 2 ul of the serially diluted compound or DMSO control were then added to new wells containing 98 ul of 1×CAB, for a total volume of 100 ul, 10 ul of which were then transferred to wells of a new plate. 5 ul of the diluted IRE1α was then added to each well. 5 ul of a […] XBP1 RNA probe was then added to each well. Fluorescence was then read over 30 minutes in kinetic mode (485/515 nm).
Two RNA probes were used, XBP1 wildtype (SEQ ID NO: 2) which is able to be spliced by active IRE1α or XBP1 mutant (SEQ ID NO: 3) which is unable to be spliced. Each probe contained a 5′ 6-FAM modification and a 3′ IOWA Black FQ modification.
A second FRET assay was performed to assess ATP-mediated inhibition. In this case, compounds and IRE1α were prepared and combined as discussed above, with the addition of ATP up to 1 mM final concentration. This mixture was incubated at room temperature for 60 minutes and then 5 ul of 400 nM XBP1 wildtype or mutant RNA probe was added. Plates were then read over 30 minutes in kinetic mode (485/515 nm) and rate of fluorescence increase calculated for different compound dilutions to determine IC50 (Table 3).

T1 sequence (O75460 19-977): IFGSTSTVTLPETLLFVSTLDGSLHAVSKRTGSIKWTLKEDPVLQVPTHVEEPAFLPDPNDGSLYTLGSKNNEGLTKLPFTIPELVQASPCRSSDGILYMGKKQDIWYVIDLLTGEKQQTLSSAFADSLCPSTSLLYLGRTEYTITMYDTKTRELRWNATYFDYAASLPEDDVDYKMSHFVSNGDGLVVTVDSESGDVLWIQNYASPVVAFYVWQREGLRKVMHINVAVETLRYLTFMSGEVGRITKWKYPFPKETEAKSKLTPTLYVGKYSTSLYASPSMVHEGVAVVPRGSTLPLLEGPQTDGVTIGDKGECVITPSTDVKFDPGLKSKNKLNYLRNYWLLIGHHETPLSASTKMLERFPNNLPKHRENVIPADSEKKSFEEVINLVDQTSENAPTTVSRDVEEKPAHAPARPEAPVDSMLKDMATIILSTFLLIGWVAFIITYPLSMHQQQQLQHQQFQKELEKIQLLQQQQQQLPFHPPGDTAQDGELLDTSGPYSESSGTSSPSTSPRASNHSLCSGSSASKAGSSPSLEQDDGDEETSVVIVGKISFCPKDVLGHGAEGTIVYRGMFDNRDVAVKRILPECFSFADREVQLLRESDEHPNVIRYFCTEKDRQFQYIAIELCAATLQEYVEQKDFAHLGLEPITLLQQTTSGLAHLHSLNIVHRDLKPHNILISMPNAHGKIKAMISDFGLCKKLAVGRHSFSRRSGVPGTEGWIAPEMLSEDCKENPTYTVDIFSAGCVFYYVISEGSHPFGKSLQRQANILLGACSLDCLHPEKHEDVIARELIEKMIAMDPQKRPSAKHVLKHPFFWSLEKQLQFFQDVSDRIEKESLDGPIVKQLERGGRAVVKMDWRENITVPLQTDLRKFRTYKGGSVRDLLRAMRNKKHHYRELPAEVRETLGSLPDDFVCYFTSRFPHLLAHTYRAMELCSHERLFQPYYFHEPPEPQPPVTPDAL

Structure (SMILES) | EC50 [1] | IC50 [2]
COc1nc(NS(=O)(=O)c2cccc(F)c2Cl)ccc1/C=C/c1cnc(NC2CCC(N(C)C)CC2)nc1 (single isomer, unassigned) [Compound 39, 2-chloro-N-(5-((E)-2-(2-(((1r,4r)-4-(dimethylamino)cyclohexyl)amino)pyrimidin-5-yl)vinyl)-6-methoxypyridin-2-yl)-3-fluorobenzenesulfonamide] | ≤ 5 nM | ≤ 1 nM
CCCc1nc(NC2CCC(N)CC2)ncc1/C=C/c1ccc(NS(=O)(=O)c2ccccc2Cl)cc1 (stereo not shown) [Compound 4, N-(4-((E)-2-(2-(((1r,4r)-4-aminocyclohexyl)amino)-4-propylpyrimidin-5-yl)vinyl)phenyl)-2-chlorobenzenesulfonamide] | 50 to 100 nM | 1 to 5 nM
Cc1cc(NS(=O)(=O)c2ccccc2Cl)ccc1/C=C/c1cnc(NC2CCC(N)CC2)nc1 (stereo not shown) [Compound 5, N-(4-((E)-2-(2-(((1r,4r)-4-aminocyclohexyl)amino)pyrimidin-5-yl)vinyl)-3-methylphenyl)-2-chlorobenzenesulfonamide] | ≤ 5 nM | ≤ 1 nM
COc1nc(NS(=O)(=O)c2ccccc2Cl)ccc1/C=C/c1cnc(NC2CCC(N)CC2)nc1 (stereo not shown) [Compound 9, N-(5-((E)-2-(2-(((1r,4r)-4-aminocyclohexyl)amino)pyrimidin-5-yl)vinyl)-6-methoxypyridin-2-yl)-2-chlorobenzenesulfonamide] | ≤ 5 nM | ≤ 1 nM
COc1cc(NS(=O)(=O)c2ccccc2Cl)ccc1CCc1cnc(NC2CCC(N)CC2)nc1 (stereo not shown) [Compound 15, N-(4-(2-(2-(((1r,4r)-4-aminocyclohexyl)amino)pyrimidin-5-yl)ethyl)-3-methoxyphenyl)-2-chlorobenzenesulfonamide] | 100 to 10000 nM | ≤ 1 nM
CCc1cc(NS(=O)(=O)c2ccccc2Cl)cnc1CCc1cnc(NC2CCC(N)CC2)nc1 (stereo not shown) [Compound 16, N-(6-(2-(2-(((1r,4r)-4-aminocyclohexyl)amino)pyrimidin-5-yl)ethyl)-5-ethylpyridin-3-yl)-2-chlorobenzenesulfonamide] | 100 to 10000 nM | ≤ 1 nM
Cc1nc(NS(=O)(=O)c2ccccc2Cl)ccc1CCc1cnc(NC2CCC(O)CC2)nc1 (stereo not shown) [Compound 20, 2-chloro-N-(5-(2-(2-(((1r,4r)-4-hydroxycyclohexyl)amino)pyrimidin-5-yl)ethyl)-6-methylpyridin-2-yl)benzenesulfonamide] |  | 100 to 1000 nM
Cc1nc(NS(=O)(=O)c2ccccc2Cl)ccc1CCc1cnc(NC2CCC(N(C)C)CC2)nc1 (stereo not shown) [Compound 21, 2-chloro-N-(5-(2-(2-(((1r,4r)-4-(dimethylamino)cyclohexyl)amino)pyrimidin-5-yl)ethyl)-6-methylpyridin-2-yl)benzenesulfonamide] |  | 1 to 5 nM
Cc1nc(NS(=O)(=O)c2ccccc2Cl)c(F)cc1/C=C/c1cnc(NC2CCC(N(C)C)CC2)nc1 (stereo not shown) [Compound 22, 2-chloro-N-(5-((E)-2-(2-(((1r,4r)-4-(dimethylamino)cyclohexyl)amino)pyrimidin-5-yl)vinyl)-3-fluoro-6-methylpyridin-2-yl)benzenesulfonamide] | ≤ 5 nM | ≤ 1 nM
Cc1cc(NS(=O)(=O)c2ccccc2Cl)c(F)cc1/C=C/c1cnc(NC2CCC(N(C)C)CC2)nc1 (stereo not shown) [Compound 28, 2-chloro-N-(4-((E)-2-(2-(((1r,4r)-4-(dimethylamino)cyclohexyl)amino)pyrimidin-5-yl)vinyl)-2-fluoro-5-methylphenyl)benzenesulfonamide] | ≤ 5 nM | ≤ 1 nM
CCc1nc(NS(=O)(=O)c2ccccc2Cl)ccc1/C=C/c1cnc(NC2CCC(N(C)C)CC2)nc1 (stereo not shown) [Compound 29, 2-chloro-N-(5-((E)-2-(2-(((1r,4r)-4-(dimethylamino)cyclohexyl)amino)pyrimidin-5-yl)vinyl)-6-ethylpyridin-2-yl)benzenesulfonamide] | ≤ 5 nM | ≤ 1 nM
CCN(CC)C1CCC(Nc2ncc(/C=C/c3ccc(NS(=O)(=O)c4ccccc4Cl)nc3C)cn2)CC1 (stereo not shown) [Compound 30, 2-chloro-N-(5-((E)-2-(2-(((1r,4r)-4-(diethylamino)cyclohexyl)amino)pyrimidin-5-yl)vinyl)-6-methylpyridin-2-yl)benzenesulfonamide] | ≤ 5 nM | ≤ 1 nM
Cc1nc(NS(=O)(=O)c2ccc(F)cc2Cl)ccc1/C=C/c1cnc(NC2CCC(N(C)C)CC2)nc1 (stereo not shown) [Compound 31, 2-chloro-N-(5-((E)-2-(2-(((1r,4r)-4-(dimethylamino)cyclohexyl)amino)pyrimidin-5-yl)vinyl)-6-methylpyridin-2-yl)-4-fluorobenzenesulfonamide] | ≤ 5 nM | ≤ 1 nM
COc1nc(NS(=O)(=O)c2ccc(F)cc2Cl)ccc1/C=C/c1cnc(NC2CCC(N(C)C)CC2)nc1 (stereo not shown) [Compound 32, 2-chloro-N-(5-((E)-2-(2-(((1r,4r)-4-(dimethylamino)cyclohexyl)amino)pyrimidin-5-yl)vinyl)-6-methoxypyridin-2-yl)-4-fluorobenzenesulfonamide] | ≤ 5 nM | ≤ 1 nM
Cc1nc(NS(=O)(=O)c2cccc(F)c2Cl)ccc1/C=C/c1cnc(NC2CCC(N(C)C)CC2)nc1 (stereo not shown) [Compound 33, 2-chloro-N-(5-((E)-2-(2-(((1r,4r)-4-(dimethylamino)cyclohexyl)amino)pyrimidin-5-yl)vinyl)-6-methylpyridin-2-yl)-3-fluorobenzenesulfonamide] | ≤ 5 nM | ≤ 1 nM
CN(C)C1CCC(Nc2ncc(/C=C/c3ccc(NS(=O)(=O)c4ccccc4Cl)cc3)cn2)CC1 (stereo not shown) [Compound 34, 2-chloro-N-(4-((E)-2-(2-(((1r,4r)-4-(dimethylamino)cyclohexyl)amino)pyrimidin-5-yl)vinyl)phenyl)benzenesulfonamide] | ≤ 5 nM | ≤ 1 nM
CN(C)C1CCC(Nc2ncc(/C=C/c3ccc(NS(=O)(=O)c4ccccc4Cl)c(F)c3)cn2)CC1 (stereo not shown) [Compound 35, 2-chloro-N-(4-((E)-2-(2-(((1r,4r)-4-(dimethylamino)cyclohexyl)amino)pyrimidin-5-yl)vinyl)-2-fluorophenyl)benzenesulfonamide] | 5 to 50 nM | ≤ 1 nM
CN(C)C1CCC(Nc2ncc(/C=C/c3ccc(NS(=O)(=O)c4ccccc4Cl)nc3)cn2)CC1 (stereo not shown) [Compound 36, 2-chloro-N-(5-((E)-2-(2-(((1r,4r)-4-(dimethylamino)cyclohexyl)amino)pyrimidin-5-yl)vinyl)pyridin-2-yl)benzenesulfonamide] | ≤ 5 nM | ≤ 1 nM
CN(C)C1CCC(Nc2ncc(/C=C/c3cnc(NS(=O)(=O)c4ccccc4Cl)cn3)cn2)CC1 (stereo not shown) [Compound 37, 2-chloro-N-(5-((E)-2-(2-(((1r,4r)-4-(dimethylamino)cyclohexyl)amino)pyrimidin-5-yl)vinyl)pyrazin-2-yl)benzenesulfonamide] | 5 to 50 nM | ≤ 1 nM
Cc1nc(NS(=O)(=O)c2ccc(F)c(F)c2Cl)ccc1/C=C/c1cnc(NC2CCC(N(C)C)CC2)nc1 (stereo not shown) [Compound 38, 2-chloro-N-(5-((E)-2-(2-(((1r,4r)-4-(dimethylamino)cyclohexyl)amino)pyrimidin-5-yl)vinyl)-6-methylpyridin-2-yl)-3,4-difluorobenzenesulfonamide] | 5 to 50 nM | ≤ 1 nM
CN(C)C1CCC(Nc2ncc(C=Cc3cnc(NS(=O)(=O)c4ccccc4Cl)nc3)cn2)CC1 (stereo not shown) [Compound 40, 2-chloro-N-(5-(2-(2-(((1r,4r)-4-(dimethylamino)cyclohexyl)amino)pyrimidin-5-yl)vinyl)pyrimidin-2-yl)benzenesulfonamide] |  | ≤ 1 nM
COc1nc(NS(=O)(=O)c2cnccc2Cl)ncc1C=Cc1cnc(NC2CCC(N(C)C)CC2)nc1 (stereo not shown) [Compound 43, 4-chloro-N-(5-(2-(2-(((1r,4r)-4-(dimethylamino)cyclohexyl)amino)pyrimidin-5-yl)vinyl)-4-methoxypyrimidin-2-yl)pyridine-3-sulfonamide] |  | 1 to 5 nM
